# Assay results reported in patent publication US6696481B2, “Salt of perindopril and pharmaceutical compositions containing it” (Les Laboratoires Servier, priority 2003, dated 2004).
# Tests used:
# [1] = Shelf-life of tablets / pharmaceutical compositions; format: physicochemical
# Description: However, in view of the intrinsic fragility of perindopril, the tert-butylamine salt has not been capable of providing a complete solution to the problems of the product's stability to heat and humidity. Indeed, for marketing, tablets of perindopril tert-butylamine salt must, in certain countries, be protected with additional packaging measures. Moreover, even for temperate-climate countries, that instability has made it impossible to obtain a shelf-life of more than 2 years for the tablets. Finally, for marketing of the tablets, they have to be marked “to be stored at a temperature less than or equal to 30 degrees”.
# [2] = Long-term stability study of immediate-release tablets, perindopril assayed by inverse-phase HPLC; format: physicochemical; settings: for Percentage remaining (%): 6 months; for degradation rate: after 6 months
# Experimental: Long-term stability studies carried out under very precise temperature and humidity conditions have yielded the results indicated in the Table hereinbelow.
# In that study, perindopril was assayed by inverse-phase high-pressure liquid chromatography using, as eluant, an aqueous phase (comprising sodium heptane-sulphonate, and the pH of which is 2) and acetonitrile (67/33). Detection of the product was carried out by UV (215 nm).
# The study was carried out using immediate-release tablets containing either 2.4 mg of the arginine salt of perindopril or 2.0 mg of the tert-butylamine salt of perindopril (each of the two tablets containing 1.7 mg of perindopril). The tablets were assayed 6 months after the start of storage of the tablets at different temperatures and different relative humidities (% R.H.).
# The arginine salt used in this study is the L-arginine salt. It has been prepared according to a classical method of salification of organic chemistry.
SMILES,"shelf-life ([1]; pharmaceutical compositions, considered from the 6-month results)","Percentage remaining (%) ([2]; 25° C., 60% R.H.)","Percentage remaining (%) ([2]; 30° C., 60% R.H.)","Percentage remaining (%) ([2]; 40° C., 75% R.H.)",degradation rate [2],"shelf-life ([1]; tablets, temperate-climate countries) [years]"
CCC[C@H](N[C@@H](C)C(=O)N1[C@H](C(=O)O)C[C@@H]2CCCC[C@@H]21)C(=O)OCC.N=C(N)NCCC[C@H](N)C(=O)O [Arginine salt of perindopril],at least three years,99.5,98.1,98.6,practically no degradation,
CC(C)(C)N.CCC[C@H](N[C@@H](C)C(=O)N1[C@H](C(=O)O)C[C@@H]2CCCC[C@@H]21)C(=O)OCC [tert-Butylamine salt of perindopril],,101.0,94.4,67.2,approximately 33%,≤ 2
